Test results: patent publication US20240009234A1, “SYNTHETIC OLIGOMERIZATION SYSTEMS FOR CELL ENGINEERING AND THERAPY” (The Board of Trustees of the Leland Stanford Junior …, priority 2020, published 2024)

Tests used:
Conditions in all cases: 8-24 hr
[1] = system: FKBP-TLR5/FRB-TLR5 model receptor system; assay: NFκβ activity of FKBP-TLR5/FRB-TLR5 heterodimerization system in Jurkat-NFκβ-GFP reporter cells; assay type: cell-based, human
Method: (§1) In each of the following examples, standard molecular cloning techniques were performed to assemble nucleic acid sequences encoding components of chimeric transmembrane receptor polypeptides onto plasmid backbones. Plasmids were transfected into HEK293T cells to create lentivirus. Lentivirus was transduced into all cell lines to create receptor engineered cells. Presence of the receptor was determined by a fluorescent reporter. Receptor engineered Jurkat cells or Jurkat-NFκβ-GFP and/or Jurkat-NFAT-GFP reporter cells were treated with activator for 8-24 hr. Receptor activity was measured by antibody staining or GFP expression via flow cytometry.
The receptor was further modified to activate upon heterodimerization (A/B system) by dimerizing two different receptor constructs. FKBP heterodimerizes with FKBP-rapamycin-binding (FRB, protein fragment of human mTOR) with the addition of AP21967 (protein-protein interaction inducing macrocyclic small molecule), and an FKBP-TLR5/FRB-TLR5 model receptor system was engineered and activated with AP21967.

[2] = system: nanobody-fused chimeric transmembrane receptor polypeptide (Nb-TLR5); assay: NFκβ activity of Nb-TLR5 receptor-engineered Jurkat-NFκβ-GFP reporter cells; assay type: cell-based
Method: as §1
The receptor ECD was also expanded beyond endogenous proteins to engineered nanobodies that bind to small molecules. For example, FIG. 8 presents results for a nanobody-fused chimeric transmembrane receptor polypeptide (Nb-TLR5) engineered and activated by treatment with the asymmetric monomeric small molecule, caffeine. The graph of FIG. 8 plots NFκβ activity for receptor-engineered Jurkat-NFκβ-GFP reporter cells treated with or without caffeine activator for 8-24 hr.

[3] = system: truncated FKBP-TLR5 receptors; assay: NFκβ activity of Jurkat-NFκβ-GFP reporter cells with truncated FKBP-TLR5 receptor constructs; assay type: cell-based, human
truncated FKBP-TLR5 receptors, sequence (P62942 2-108 F37V limits assumed): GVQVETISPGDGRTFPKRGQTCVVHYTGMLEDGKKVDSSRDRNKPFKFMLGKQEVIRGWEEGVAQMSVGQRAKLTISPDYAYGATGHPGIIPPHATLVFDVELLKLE
Method: as §1
To determine where to truncate the TLR5 ECD such that the binding domain could be redirected to expand the soluble factor repertoire, the ECD was also methodically truncated at specific locations prior to fusing to FKBP. […] The graph of FIG. 3 plots the Nκβ activity for Jurkat-NFKκβ-GFP reporter cells engineered with or without truncated receptor constructs and treated with AP20187 activator for 8-24 hr. The graph of FIG. 4 plots the NFκβ activity for Jurkat-NFκβ-GFP reporter cells engineered with or without truncated receptor constructs and treated with Flagellin activator for 8-24 hr. […]

CO[C@H]1[C@@H](O)[C@H](C)C[C@H](C)/C=C/C=C/C=C(\C)[C@@H](c2c[nH]c3c(C)cccc23)C[C@@H]2CC[C@@H](C)[C@@](O)(O2)C(=O)C(=O)N2CCCC[C@H]2C(=O)O[C@H]([C@H](C)C[C@@H]2CC[C@@H](O)[C@H](OC)C2)C[C@H](O)[C@H](C)/C=C(\C)[C@H]1O [AP21967]
NFκβ activity (FIG. 7) [1]: intramembrane signal pathway activation

Cn1c(=O)c2c(ncn2C)n(C)c1=O [caffeine]
NFκβ activity (FIG. 8) [2]: activated

flagellin
receptor activation, NFκβ activity (FIGS. 3-5) [3]: not
